Experimental data from patent US20260364210A1, “COMPOSITIONS AND METHODS FOR TRANSGLUTAMINASE-MEDIATED ENDOCYTOSIS” (The Board of Trustees of the Leland Stanford Junior …, priority 2022, published 2026).
Starred links: 1 amine or outer side, 2 acyl side, 3 side chain; linkers in the order of their positions; H or OH if unused. Non-standard residues stand in square brackets, D forms with d. Residues, ends and D or L forms follow the SMILES beside them. Groups on a side chain read outwards from the residue. *: point of attachment. Biotin = O=C1N[C@H]2[C@H](CS[C@H]2CCCCC(=O)*)N1; X1 = CN(C)C(=O)/C=C/CC[C@H](N[*:1])C(=O)[*:2]; PEG4 = NCCOCCOCCOCCOCCC(=O)O; Dab = NCC[C@H](N)C(=O)O

Assays:
trypsin = test: Metabolism by trypsin; format: in vitro ADME; details: role: substrate
From the text: (§1) HB-2121 is analogous to the TG2 inhibitor/probe HB-230 but with one modification; the primary amide C-terminus of HB-230 was replaced with a tertiary dimethyl amide. This change greatly enhances the gastrointestinal stability of the probe.

LRP-1 knockout MEFs = test: Uptake of HB230 and α2M in LRP-1 knockout MEFs; format: cell-based; details: exogenous TRX and betamethasone, with α2M
[1] = tested on: normal rat kidney (NRK) cells; test: Uptake of fluorescent probe by NRK cells with or without α2M; format: cell-based
From the text: (§2) (C) Fluorescently tagged α2M colocalizes strongly with HB-230.
FIG. 15. Uptake of HB-2121.
Puncta of two distinct sizes were observed.
To verify that HB230 internalization was dependent on TG2 activity, HB258 was designed and synthesized as a control probe. This dihydro-analog is otherwise identical to HB230 but lacks its electrophilic warhead and is therefore unable to irreversibly bond to the active site C277 residue of TG2.

[2] = tested on: early endosome antigen-1 (EEA-1); test: Colocalization with early endosomes (EEA-1 antibody staining) in NRK cells; format: cell-based, rat; details: co-incubated with α2M, 90 min
Procedure: (§3) To establish the identity of these large intracellular puncta, NRK cells were transfected with RFP tagged lysosomal-associated membrane protein (LAMP-1). Wild-type and transfected cells were co-incubated with α2M and HB230 for 90 min prior to fixation. To test the hypothesis that the large puncta corresponded to early endosomes, fixed wild-type cells were stained with an antibody against early endosome antigen-1 (EEA-1).

WT MEFs = test: Uptake of HB230 and α2M in wild-type MEFs; format: cell-based; details: exogenous TRX and betamethasone, with α2M
From the text: Low density lipoprotein (LDL) receptor-related protein 1 (LRP-1, a.k.a., (α2M receptor or CD91), a member of the LDL receptor family, is responsible for receptor-mediated endocytosis of α2M. Although this receptor is expressed on the surface of a wide range of cell types within the body, α2M endocytosis by LRP-1 is only triggered when this ubiquitous plasma protein undergoes a conformational change upon binding to its protease or non-protease ligands (Bres and Faissner, 2019). We sought to establish whether endocytosis of the ternary α2M-TG2-peptide complex was mediated by LRP-1 using pharmacologic inhibitors of clathrin mediated endocytosis.

carboxypeptidase = test: Metabolism by carboxypeptidase; format: in vitro ADME; details: role: substrate, subsequent to chymotrypsin
From the text: (§4) FIGS. 14A-14B. Metabolic stability of HB-230 and HB-2121. (A) HB-230 is transformed by chymotrypsin to give the C-terminal carboxylic acid. This metabolite is subsequently cleaved by carboxypeptidase to give the tetrapeptide without the terminal phenylalanine. (B) HB-2121 is stable to both chymotrypsin and carboxypeptidase mediated metabolism.
as §1

chymotrypsin = test: Metabolism by chymotrypsin; format: in vitro ADME; details: role: substrate
From the text: as §4, §1

elastase = test: Metabolism by elastase; format: in vitro ADME; details: role: substrate
From the text: as §1

pepsin = test: Metabolism by pepsin; format: in vitro ADME; details: role: substrate
From the text: as §1

α2M = test: Co-endocytosis of HB230 and fluorescent α2M in NRK cells; format: cell-based; details: larger, but not smaller, puncta
Procedure: as §2
To obtain definitive evidence for co-endocytosis of HB230 and α2M, a fluorescent batch of α2M was prepared.

[3] = tested on: lysosomal-associated membrane protein (LAMP-1); test: Colocalization with RFP-tagged LAMP-1 in transfected NRK cells; format: cell-based, rat; details: co-incubated with α2M, 90 min; large puncta
Procedure: as §3

[4] = Endocytosis of fluorescent streptavidin by NRK cells; format: cell-based, rat; details: 2 μM HB2110, 1 μM Cy5-conjugated streptavidin
Procedure: FIG. 11: (A) Treating NRK cells with increasing concentrations of HB-3-003 in the presence of fluorescently tagged streptavidin leads to increased internalization of streptavidin after a 90 min treatment. (B) Quantification of dose response.
In order to determine the ability of this pathway to clear specifically targeted proteins from the extracellular environment, we synthesized a pentapeptide harboring the electrophilic warhead and a PEG-4 biotin conjugated to the DAB substituted Y amino acid (HB2110). Streptavidin is expected to bind to the biotin arm of the probe, and thus be endocytosed along with the rest of the complex as previously described. To test this hypothesis NRK cells were treated with 2 μM HB2110 and 1 μM Cy5-conjugated streptavidin.
We also synthesized the equivalent pentapeptide harbouring a Gln residue in the place of the electrophilic warhead, with biotin conjugated to the DAB substituted Y amino acid through a PEG linker (HB3-3). We then assed the ability of cells to endocytose fluorescent streptavidin in the presence of HB3-3 and α2M.

Structure (SMILES)	resistance to metabolism by trypsin (trypsin)	formation of large co-stained puncta (LRP-1 knockout MEFs)	uptake by NRK cells in the presence of α2M ([1]; 100 μg/mL of α2M)	uptake by NRK cells ([1]; 1 TM (so in the source) exogenous probe, 90 min)	uptake by NRK cells on supplementation with α2M ([1]; NRK cells supplemented with increasing α2M)	localization relative to EEA-1 [2]	internalization of ternary complex (WT MEFs)	metabolism by carboxypeptidase (carboxypeptidase)	metabolism by chymotrypsin (chymotrypsin)	resistance to metabolism by elastase (elastase)	resistance to metabolism by pepsin (pepsin)	overlap with fluorescent α2M (α2M)	co-localization with RFP-tagged LAMP-1 [3]	colocalization of Cy5-streptavidin with α2M [4]
CC(=O)N1CCC[C@H]1C(=O)N[C@@H](CC/C=C/C(=O)N(C)C)C(=O)N[C@@H](CCNC(=O)CCCCC[N+]1=C(/C=C/C=C/C=C2/N(C)c3ccc(S(=O)(=O)O)cc3C2(C)C)C(C)(C)c2cc(S(=O)(=O)[O-])ccc21)C(=O)N1CCC[C@H]1C(=O)N[C@@H](Cc1ccccc1)C(N)=O [HB-230, AcPro-HWE-(Dab-SCy5)-Pro-Phe]	resistance to metabolism	marked defect in their ability to form large co-stained puncta	robustly taken up	robust uptake	strong dose-dependent increase in uptake of HB230 up to ~100 μg/ml	appear in distinct sub-cellular compartments for the most part	internalized the ternary complex	subsequent cleavage of the C-terminal phenylalanine	enzymatic deamidation at the C-terminus (CONH2→CO2H)	resistance to metabolism	resistance to metabolism	strong overlap	strongly co-localizes with RFP-tagged LAMP-1 in the large puncta	–
CC(=O)N1CCC[C@H]1C(=O)N[C@@H](CC/C=C/C(=O)N(C)C)C(=O)N[C@@H](CCNC(=O)CCOCCOCCOCCOCCNC(=O)CCCC[C@@H]1SC[C@@H]2NC(=O)N[C@@H]21)C(=O)N1CCC[C@H]1C(=O)N[C@@H](Cc1ccccc1)C(N)=O [HB-2110] (Ac-P[X1][Dab]([PEG4-Biotin])PF-NH2)	–	–	–	–	–	–	–	–	–	–	–	–	–	found to colocalize with α2M in the lysosomal compartment
